Data from US20230109801A1 (Blue Oak Pharmaceuticals, Inc., priority 2020, published 2023).
Where a name gives a salt, the structure may show the parent alone.

System: mice
Test: SmartCube in vivo neuropharmacological behavioral assay
Details: for AD: antidepressant, percent probability / AG: analgesic, percent probability / AP: antipsychotic, percent probability / AX: anxiolytic, percent probability / CE: cognitive enhancer, percent probability / HA: hallucinogenic, percent probability / MS: mood stabilizer, percent probability / PS, percent probability / SD: sedative hypnotic, percent probability / SE: side effects, percent probability / UN: uncharacterized CNS activity, percent probability / XG: anxiogenic, percent probability: SmartCube, i.p. 15 min before test, at the MED; for minimal effective dose: Mus musculus, ip, read-out: MED (minimal effective dose)
Summary of the method: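 Mice dosed i.p. with compound in Pharmasolve (NMP) 15 min before automated video capture of behavior; doses e.g. 0.3–30 mg/kg. Behavioral signature compared with reference-drug classes, giving per-class probability (0–100, 0 = LOQ); MED = lowest dose with ≥50% total activity.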

[1] = dose having 50% or more total activity in SmartCube, i.p.

Row | Compound | AD: antidepressant, percent probability | AG: analgesic, percent probability | AP: antipsychotic, percent probability | AX: anxiolytic, percent probability | CE: cognitive enhancer, percent probability | HA: hallucinogenic, percent probability | MS: mood stabilizer, percent probability | PS, percent probability | SD: sedative hypnotic, percent probability | SE: side effects, percent probability | UN: uncharacterized CNS activity, percent probability | XG: anxiogenic, percent probability | MED (minimal effective dose) [1] | minimal effective dose [1] [mg/kg]
1 | 11-[(2E)-Pent-2-en-1-yl]-11-azatricyclo[6.2.1.0^2,7]undeca-2,4,6,9-tetraene hydrochloride [Compound 9] | + (LOQ ≤ X < 5%) | + (LOQ ≤ X < 5%) | + (LOQ ≤ X < 5%) | + (LOQ ≤ X < 5%) | + (LOQ ≤ X < 5%) | + (LOQ ≤ X < 5%) | + (LOQ ≤ X < 5%) | + (LOQ ≤ X < 5%) | + (LOQ ≤ X < 5%) | + (LOQ ≤ X < 5%) | + (LOQ ≤ X < 5%) | + (LOQ ≤ X < 5%) | + (30 mg/kg < +) | 
2 | CC1=C(C)C2c3ccccc3C1N2C(C)C [Compound 60, 9,10-Dimethyl-11-(propan-2-yl)-11-azatricyclo[6.2.1.0^2,7]undeca-2,4,6,9-tetraene hydrochloride] | ++++ (50% ≤ X <1 00%) | ++ (5% ≤ X < 25%) | + (LOQ ≤ X < 5%) | + (LOQ ≤ X < 5%) | + (LOQ ≤ X < 5%) | + (LOQ ≤ X < 5%) | + (LOQ ≤ X < 5%) | ++ (5% ≤ X < 25%) | + (LOQ ≤ X < 5%) | + (LOQ ≤ X < 5%) | + (LOQ ≤ X < 5%) | + (LOQ ≤ X < 5%) |  | 10 to 30
3 | COc1ccc2c(c1)C1CCC2N1C(C)C (centres unmarked) [Compound 35, 4-Methoxy-11-(propan-2-yl)-11-azatricyclo[6.2.1.0^2,7]undeca-2,4,6-triene] | + (LOQ ≤ X < 5%) | + (LOQ ≤ X < 5%) | + (LOQ ≤ X < 5%) | ++ (5% ≤ X < 25%) | + (LOQ ≤ X < 5%) | + (LOQ ≤ X < 5%) | + (LOQ ≤ X < 5%) | + (LOQ ≤ X < 5%) | +++ (25% ≤ X < 50%) | + (LOQ ≤ X < 5%) | ++ (5% ≤ X < 25%) | + (LOQ ≤ X < 5%) |  | 1 to 10
4 | COc1cccc2c1C1C=CC2N1 (centres unmarked) [Compound 16, 3-Methoxy-11-azatricyclo[6.2.1.0^2,7]undeca-2,4,6,9-tetraene hydrochloride] | + (LOQ ≤ X < 5%) | + (LOQ ≤ X < 5%) | + (LOQ ≤ X < 5%) | ++ (5% ≤ X < 25%) | + (LOQ ≤ X < 5%) | + (LOQ ≤ X < 5%) | + (LOQ ≤ X < 5%) | + (LOQ ≤ X < 5%) | + (LOQ ≤ X < 5%) | + (LOQ ≤ X < 5%) | ++ (5% ≤ X < 25%) | + (LOQ ≤ X < 5%) |  | > 30
5 | Fc1cc2c(cc1F)C1CCC2N1 [Compound 7, 4,5-Difluoro-11-azatricyclo[6.2.1.0^2,7]undeca-2,4,6-triene hydrochloride] | ++ (5% ≤ X < 25%) | ++ (5% ≤ X < 25%) | + (LOQ ≤ X < 5%) | +++ (25% ≤ X < 50%) | + (LOQ ≤ X < 5%) | + (LOQ ≤ X < 5%) | + (LOQ ≤ X < 5%) | + (LOQ ≤ X < 5%) | + (LOQ ≤ X < 5%) | ++ (5% ≤ X < 25%) | + (LOQ ≤ X < 5%) | + (LOQ ≤ X < 5%) |  | > 30
6 | C1=CC2c3ccccc3C1N2C1CC1 [Compound 56, 11-Cyclopropyl-11-azatricyclo[6.2.1.0^2,7]undeca-2,4,6,9-tetraene hydrochloride] | ++ (5% ≤ X < 25%) | + (LOQ ≤ X < 5%) | ++ (5% ≤ X < 25%) | ++ (5% ≤ X < 25%) | ++ (5% ≤ X < 25%) | + (LOQ ≤ X < 5%) | + (LOQ ≤ X < 5%) | + (LOQ ≤ X < 5%) | + (LOQ ≤ X < 5%) | + (LOQ ≤ X < 5%) | +++ (25% ≤ X < 50%) | + (LOQ ≤ X < 5%) |  | 10 to 30
7 | CCC(C)N1C2CCC1c1ccccc12 (centres unmarked) [Compound 44, 11-(Butan-2-yl)-11-azatricyclo[6.2.1.0^2,7]undeca-2,4,6-triene hydrochloride] | ++++ (50% ≤ X <1 00%) | + (LOQ ≤ X < 5%) | + (LOQ ≤ X < 5%) | ++ (5% ≤ X < 25%) | + (LOQ ≤ X < 5%) | + (LOQ ≤ X < 5%) | + (LOQ ≤ X < 5%) | ++ (5% ≤ X < 25%) | + (LOQ ≤ X < 5%) | + (LOQ ≤ X < 5%) | + (LOQ ≤ X < 5%) | + (LOQ ≤ X < 5%) |  | 1 to 10
8 | CC(C)C(C)N1C2C=CC1c1ccccc12 (centres unmarked) [Compound 58, 11-(3-Methylbutan-2-yl)-11-azatricyclo[6.2.1.0^2,7]undeca-2,4,6,9-tetraene hydrochloride] | ++ (5% ≤ X < 25%) | + (LOQ ≤ X < 5%) | + (LOQ ≤ X < 5%) | + (LOQ ≤ X < 5%) | + (LOQ ≤ X < 5%) | + (LOQ ≤ X < 5%) | + (LOQ ≤ X < 5%) | + (LOQ ≤ X < 5%) | + (LOQ ≤ X < 5%) | + (LOQ ≤ X < 5%) | + (LOQ ≤ X < 5%) | + (LOQ ≤ X < 5%) |  | > 30
